Measured values published in patent publication US20240270821A1, “GIP/GLP1/GCG TRI-RECEPTOR AGONISTS AND USES THEREOF” (priority 2023, published 2024).
Marks after values point to notes of the source that are not given here. Starred links: 1 amine or outer side, 2 acyl side, 3 side chain; linkers in the order of their positions; H or OH if unused. Non-standard residues stand in square brackets, D forms with d. Groups on a side chain read outwards from the residue. *: point of attachment. C20 diacid = O=C(O)CCCCCCCCCCCCCCCCCCC(=O)*; C18 diacid = O=C(O)CCCCCCCCCCCCCCCCC(=O)*; αMePhe(2-F) = C[C@](N)(Cc1ccccc1F)C(=O)O; γGlu = O=C(O)[C@H](CCC(=O)[*:2])N[*:1]; NMeY = CN[C@@H](Cc1ccc(O)cc1)C(=O)O; αMe4Pal = C[C@](N)(Cc1ccncc1)C(=O)O; αMeY = C[C@](N)(Cc1ccc(O)cc1)C(=O)O; αMeF = C[C@](N)(Cc1ccccc1)C(=O)O; 4Pal = N[C@@H](Cc1ccncc1)C(=O)O; αMeL = CC(C)C[C@](C)(N)C(=O)O; Orn = NCCC[C@H](N)C(=O)O; Dap = NC[C@H](N)C(=O)O; AEEA = NCCOCCOCC(=O)O; Aib = CC(C)(N)C(=O)O

Key:
[1] = Pepsin stability assay in simulated gastric fluid; type: in vitro ADME; settings: pH 1.2, % Intact (SD)
Protocol: A pepsin stability assay is utilized to determine the relative stability of Example polypeptides in a simulated gastric proteolytic environment. […] The relative amount of intact peptide is quantified by mass spectrometry (MS). […] The examples were dissolved in 50 mM Tris buffer pH 8.0 at a concentration of 10 mg/mL as a stock solution. Pepsin A was reconstituted in SGF at 10 mg/mL. […] The example peptide and pepsin solutions were then incubated at 37° C. in a shaking incubator set at 100 rpm. Samples (25 μL) were withdrawn at different time intervals and quenched with 100 mM ammonium bicarbonate pH 9 (50 μL) to stop proteolytic activity. All samples were centrifuged, and the supernatants were analyzed by LC/MS to determine the remaining intact peptide.

[2] = biological target: T1, hGLP-1R (Homo sapiens, UniProt P43220); test: Functional cAMP activity in the presence of 1% HSA; type: cell-based; settings: read-out: cAMP Rel EC50, hGLP-1R
Target sequence in this assay (P43220 24-463): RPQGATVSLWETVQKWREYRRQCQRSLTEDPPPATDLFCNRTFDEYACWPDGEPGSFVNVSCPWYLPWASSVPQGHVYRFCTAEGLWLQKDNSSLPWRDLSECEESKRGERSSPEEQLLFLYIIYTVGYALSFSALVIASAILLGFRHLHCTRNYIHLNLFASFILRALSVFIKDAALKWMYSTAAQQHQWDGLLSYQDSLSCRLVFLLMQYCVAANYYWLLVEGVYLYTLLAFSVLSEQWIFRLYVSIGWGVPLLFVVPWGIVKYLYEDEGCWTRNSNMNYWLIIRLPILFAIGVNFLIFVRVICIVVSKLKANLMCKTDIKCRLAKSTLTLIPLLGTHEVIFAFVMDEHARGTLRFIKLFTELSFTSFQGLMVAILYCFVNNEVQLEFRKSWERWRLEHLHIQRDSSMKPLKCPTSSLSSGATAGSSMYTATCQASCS

[3] = biological target: T1, hGLP-1R; test: GLP-1R CHO cell β-arrestin recruitment assay; type: cell-based; set-up: host or cells: CHO-K1 (PathHunter, assay-ready frozen cells); settings: for EC50: CHO-K1 PathHunter, β-arrestin-2, 0.1% casein, read-out: hGLP1R β-arrestin Rel EC50; for % Stimulation Max: normalized to GLP-1(7-36) as maximum control;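 on all read-outs here: luminescence read after 90 min peptide exposure at 37 °C and a further 60 min with detection reagent at room temperature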
Target sequence in this assay (P43220 24-463): as above
Target sequence in this assay (P32121 whole entry partner): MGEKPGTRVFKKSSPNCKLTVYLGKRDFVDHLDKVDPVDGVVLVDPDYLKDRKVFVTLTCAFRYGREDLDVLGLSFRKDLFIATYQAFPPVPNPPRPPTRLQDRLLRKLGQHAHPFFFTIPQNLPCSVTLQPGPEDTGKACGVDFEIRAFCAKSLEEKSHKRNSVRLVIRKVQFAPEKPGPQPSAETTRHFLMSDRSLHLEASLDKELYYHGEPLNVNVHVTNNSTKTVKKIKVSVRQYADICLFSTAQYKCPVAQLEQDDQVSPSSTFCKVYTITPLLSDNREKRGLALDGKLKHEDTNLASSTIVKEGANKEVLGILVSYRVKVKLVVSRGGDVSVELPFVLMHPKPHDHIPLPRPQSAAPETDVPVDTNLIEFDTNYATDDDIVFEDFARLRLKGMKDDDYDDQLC

[4] = biological target: hGcgR (Homo sapiens, UniProt P47871); test: Functional cAMP activation in the presence of 0.1% casein (no HSA); type: cell-based; settings: in the presence of 0.1% casein (no HSA); geometric mean; read-out: Relative cAMP EC50, hGcgR;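 further: intracellular cAMP rise after 30 min at 37 °C, read by HTRF against a cAMP standard curve, scaled from buffer only (0%) to maximal control ligand response (100%)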
[5] = biological target: human GLP1-R (Homo sapiens, UniProt P43220); test: GLP1-R internalization assay in HEK293 cells; type: cell-based; settings: for EC50: HEK293 cells expressing SNAP-GLP-1R, read-out: GLP1R Internalization EC50; for Internalization % TOP: normalized to maximum concentration of GLP-1 (100%)
[6] = biological target: T2, hGIPR (Homo sapiens, UniProt P48546); test: Functional cAMP activation in the presence of 0.1% casein (no HSA); type: cell-based; settings: in the presence of 0.1% casein (no HSA); geometric mean; read-out: Relative cAMP EC50, hGIPR;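 further: intracellular cAMP rise after 30 min at 37 °C read by HTRF against a standard curve, scaled between buffer alone (0%) and top control ligand concentration (100%), four-parameter fit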
T2 sequence (P48546 22-466): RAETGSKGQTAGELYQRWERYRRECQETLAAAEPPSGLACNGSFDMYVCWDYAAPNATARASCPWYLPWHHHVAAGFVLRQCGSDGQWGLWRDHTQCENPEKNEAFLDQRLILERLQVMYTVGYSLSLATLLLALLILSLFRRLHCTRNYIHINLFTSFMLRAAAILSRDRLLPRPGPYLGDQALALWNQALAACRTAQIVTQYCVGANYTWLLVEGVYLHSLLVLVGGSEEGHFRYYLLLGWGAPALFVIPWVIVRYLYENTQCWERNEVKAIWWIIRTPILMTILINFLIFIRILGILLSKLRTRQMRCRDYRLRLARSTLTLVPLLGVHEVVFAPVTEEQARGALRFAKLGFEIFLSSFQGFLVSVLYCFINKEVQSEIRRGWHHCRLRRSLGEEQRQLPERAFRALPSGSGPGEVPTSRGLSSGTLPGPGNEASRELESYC

[7] = Body weight in diet-induced obese C57BL/6 mice; type: in vivo; settings: percent of starting weight, DIO mice, mean ± SEM n=5
Protocol: To investigate the effect of the polypeptides as described herein on weight loss, exemplary polypeptides are dosed to C57BL/6 diet-induced obese (DIO) mice. Specifically, DIO male C57BL/6 mice (Taconic, Germantown, NY) maintained on a calorie-rich diet are used in the following studies. Mice are individually housed in a temperature-controlled (24° C.) facility with 12-hour light/dark cycle (lights on 22:00) and free access to food (TD95217) and water. After a minimum of 2 weeks acclimation to the facility, the mice are randomized according to their body weight, so each experimental group of animals would have similar starting body weight. The body weights range from 41 to 50 g. All groups contain 5 mice. […] Treatments are administered by subcutaneous (SC) injection (10 mL/kg) to ad libitum fed DIO mice 30 to 90 minutes prior to the onset of the dark cycle either once daily (QD) or once every 3 days (Q3D) for 9-16 days. Body weight and food intake are measured daily throughout the study. Body weight is presented as percent of the starting weight. […] Data are presented as mean±SEM of 5 animals per group in Table 7 below. Statistical analysis is performed using repeated measures ANOVA, followed by Dunnett's method comparison test.

[8] = biological target: human GcgR (Homo sapiens, UniProt P47871); test: Functional cAMP activity in the presence of 1% HSA; type: cell-based; settings: read-out: cAMP Rel EC50, hGcgR
[9] = biological target: T1, hGLP-1R; test: Functional cAMP activation in the presence of 0.1% casein (no HSA); type: cell-based; settings: in the presence of 0.1% casein (no HSA); geometric mean; read-out: Relative cAMP EC50, hGLP-1R;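 further: intracellular cAMP rise after 30 min at 37 °C read by HTRF, normalized between buffer only (0%) and maximal control ligand (100%), four-parameter variable-slope fit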
Target sequence in this assay (P43220 24-463): as the sequence (P43220 24-463) above

[10] = biological target: T2, hGIPR; test: Functional cAMP activity in the presence of 1% HSA; type: cell-based; settings: read-out: cAMP Rel EC50, hGIPR
[11] = system: Intestinal organoid from Göttingen minipig jejunum tissue, 2D monolayer; test: Cell based in vitro permeability (Papp) assay; type: in vitro ADME
Summary of the method: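 Papp calculated from LC/MS peptide levels in apical and basal compartments. Basal sampling at 20 min with C10 present, across monolayers grown from dissociated minipig jejunal organoids in transwells.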

Sequence of human GcgR (P47871 26-477): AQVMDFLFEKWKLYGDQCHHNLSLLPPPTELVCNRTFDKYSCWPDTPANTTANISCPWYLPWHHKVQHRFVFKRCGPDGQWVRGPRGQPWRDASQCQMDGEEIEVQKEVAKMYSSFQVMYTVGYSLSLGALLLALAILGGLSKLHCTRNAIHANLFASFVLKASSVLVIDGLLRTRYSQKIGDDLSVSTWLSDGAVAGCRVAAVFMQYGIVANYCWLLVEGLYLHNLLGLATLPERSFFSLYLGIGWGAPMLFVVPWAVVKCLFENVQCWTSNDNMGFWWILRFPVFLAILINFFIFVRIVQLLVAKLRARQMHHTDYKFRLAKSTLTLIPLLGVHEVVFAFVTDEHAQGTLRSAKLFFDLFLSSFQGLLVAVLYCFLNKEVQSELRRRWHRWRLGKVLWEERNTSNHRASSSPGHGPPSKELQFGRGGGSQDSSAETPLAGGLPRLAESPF
Sequence of hGcgR (P47871 26-477): as above
Sequence of human GLP1-R (P43220 24-463): as the sequence (P43220 24-463) above

Row | Substance | EC50 [2] | EC50 [3] | % Stimulation Max [3] | EC50 [4] | EC50 [5] | Internalization % TOP [5] | EC50 [6] | EC50 [8] | EC50 [9] | EC50 [10] | remaining at 0.25 h, 0.4 mg/mL [1] | remaining at 0.5 h, 0.4 mg/mL [1] | remaining at 1 h, 0.4 mg/mL [1] | Body weight (%) ([7]; 10 nmol/kg SC QD, 16 days) | Body weight (%) ([7]; 10 nmol/kg SC Q3D, 14 days) | Relative Papp (Compared to internal standard) [11]
1 | H-Y[Aib]QGTFTSD[4Pal]SQ[αMeL]LD[Orn]K([dE-γGlu-C18 diacid])AQ[αMe4Pal]EFI[dE][αMeY]LIAGGPSSGAPPPSGSEEE-NH2 [Example 1235] |  |  |  |  |  |  |  |  |  |  | 1.4% | 0% | 0% |  |  | 
2 | H-Y[Aib]QGTFTSDFSI[αMeL]LDKK([AEEA-γGlu-C20 diacid])AQ[Aib]AFIEYLLEGGPSSGEPPPSEG-NH2 [Example 288] | 616 nM | 16.3 nM | 18% | 5.17 nM | 30.3 nM | 72.4% | 0.234 nM | 3580 nM | 1.89 nM | 59.1 nM |  |  |  |  | 86.18 ± 0.67 % | 
3 | H-Y[Aib]QGTFTSDFS[Orn][αMeL]LDKK([AEEA-γGlu-C18 diacid])AQ[Aib]AFIEWLLEGGPSSGAPPPEGS-NH2 [Example 121] | 348 nM |  |  | 4.89 nM | 38.1 nM | 46.3% | 0.172 nM | 442 nM | 2.38 nM | 24.6 nM |  |  |  |  | 85.58 +/− 3.20**** % | 0.08
4 | H-Y[Aib]QGTFTSDFS[Dap][αMeL]LDKK([AEEA-γGlu-C18 diacid])AQ[Aib]AFIEYLLE[Aib]GPSSGAPPPSGS-NH2 [Example 134] | 549 nM |  |  | 7.28 nM | 67.9 nM | 22.3% | 0.152 nM | 1200 nM | 3.36 nM | 38.3 nM |  |  |  |  | 93.28 +/− 1.38% | 0.07
5 | H-Y[Aib]QGTFTSDFSK[αMeL]LDKK([AEEA-γGlu-C20 diacid])AQ[Aib]AFIEYLLAGGPSSGEPPPSEE-NH2 [Example 4] | 869 nM | 23.2 nM | 15.8% | 3.2 nM | 49.1 nM | 67.8% | 0.192 nM | 1580 nM | 1.66 nM | 62.3 nM |  |  |  |  | 83.00 +/− 0.88**** % | 

The next lines start with results.

Row | EC50 [2] | EC50 [3] | % Stimulation Max [3] | EC50 [4] | EC50 [5] | Internalization % TOP [5] | EC50 [6] | EC50 [8] | EC50 [9] | EC50 [10] | Substance | remaining at 0.25 h, 0.4 mg/mL [1] | remaining at 0.5 h, 0.4 mg/mL [1] | remaining at 1 h, 0.4 mg/mL [1] | Body weight (%) ([7]; 10 nmol/kg SC QD, 16 days) | Body weight (%) ([7]; 10 nmol/kg SC Q3D, 14 days) | Relative Papp (Compared to internal standard) [11]
6 | 232 nM | 16.4 nM | 44.1% | 2.15 nM | 31.4 nM | 88.4% | 0.126 nM | 605 nM | 0.831 nM | 61.1 nM | H-Y[Aib]QGT[αMePhe(2-F)]TSDYSKLLDKIAQK([AEEA-γGlu-C20 diacid])AFIEYLLEGGPSSGEPPPSEG-NH2 [Example 295] |  |  |  | 51.58 ± 3.24 % |  | 
7 | 140 nM | 3.76 nM | 29.7% | 4.05 nM |  |  | 0.398 nM | 1560 nM | 0.508 nM | 85.1 nM | H-Y[Aib]QGTFTSDYSK[αMeL]LDKK([AEEA-γGlu-C20 diacid])AQQAFVQWLIEGGPSSGEPPPSEG-NH2 [Example 315] |  |  |  |  | 79.76 +/− 1.72**** % | 
8 | 171 nM | 14 nM | 55.2% | 1.72 nM | 19.2 nM | 87.2% | 0.0806 nM | 517 nM | 0.536 nM | 21.8 nM | H-Y[Aib]QGT[αMePhe(2-F)]TSDYSILLDKIAAK([AEEA-γGlu-C20 diacid])AFIEYLIEGGPSSGEPPPSEG-NH2 [Example 296] |  |  |  | 49.64 ± 1.97 % |  | 
9 | 1130 nM | 60.2 nM | 33.5% | 3.26 nM |  |  | 0.626 nM | 2320 nM | 2.96 nM | 325 nM | H-[NMeY][Aib]QGT[αMeF]TSDYSSLLDKIAAK([AEEA-AEEA-γGlu-C20 diacid])AFIEYLLEGGPSSGEPPPSEG-NH2 [Example 297] |  |  |  | 48.42 ± 2.86 % |  | 
10 | 480 nM |  |  | 8.16 nM | 37.1 nM | 47.2% | 0.154 nM | 1220 nM | 2.63 nM | 21.4 nM | H-Y[Aib]QGTFTSDFS[Orn][αMeL]LDKK([AEEA-γGlu-C18 diacid])AQ[Aib]AFIEYLLAGGPSSGEPPPSGS-NH2 [Example 94] |  |  |  |  | 84.92 +/− 1.79**** % | 0.02
11 | 90 nM | 3.94 nM | 83.5% | 2.68 nM |  |  | 0.43 nM | 878 nM | 0.34 nM | 53.4 nM | H-H[Aib]QGT[αMePhe(2-F)]TSDYSILLDKK([AEEA-γGlu-C20 diacid])AA[Aib]AFIEYLIETGPSSGEPPPSEG-NH2 [Example 290] |  |  |  | 65.40 ± 3.45 % |  | 
